Laboratory results: patent US7998940B2, “Aptamers to von Willebrand factor and their use as thrombotic disease therapeutics” (Archemix Corp., priority 2004, dated 2011)
Like-named read-outs stand apart in the source and are kept apart here. [invdT] = inverted (3'-3') thymidine; d = 2'-deoxy (DNA); m = 2'-O-methyl

What was measured:
[1] = tested on: full length human vWF (SEQ ID NO 7); assay: dot blot KD determination and extent of binding, full length human vWF; settings: for % binding @ 100 nM vWF: extent of aptamer binding at 100 nM full length human vWF; for Kd: full length human vWF, read-out: KD;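 as to all read-outs here: dot blot binding of aptamers to full length human vWF across a protein titration, incubated 30 minutes at room temperature in 1x DPBS with BSA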
[2] = tested on: botrocetin induced platelet aggregation; assay: Inhibition of botrocetin induced platelet aggregation (BIPA) in human PRP; type: cell-based; settings: human platelet rich plasma
Method in brief: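 Fresh human platelet-rich plasma, prewarmed at 37 degrees C, was preincubated one minute with aptamer (zero, 1 nM to 1000 nM) before botrocetin at a per-donor titrated aggregating concentration. Aggregation was followed as light transmittance; the value is the concentration blocking aggregation by 90% or greater after 6 minutes.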

[3] = not given; remark: listed apart in the source
[4] = tested on: full length human vWF binding to lyophilized platelets; assay: Full length human von Willebrand Factor platelet binding assay (FACS); type: cell-based; settings: read-out: FACS IC50 vs human full length vWF
Method in brief: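 Aptamer titrations (0.1–1000 nM) pre-incubated with 5 nM full-length human vWF, then added to lyophilized platelets plus botrocetin for 15 min at 37 °C in PBS/0.5% BSA. Bound vWF detected by anti-vWF then FITC secondary antibody via flow cytometry MFI; % inhibition versus no-aptamer binding fitted for IC50.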

[5] = tested on: rabbit vWF domain A1 binding to lyophilized platelets; assay: Rabbit von Willebrand Factor domain A1 platelet binding assay (FACS); type: cell-based; settings: read-out: FACS IC50 vs rabbit A1 domain
Chain of rabbit vWF domain A1 binding to lyophilized platelets (as listed by the source): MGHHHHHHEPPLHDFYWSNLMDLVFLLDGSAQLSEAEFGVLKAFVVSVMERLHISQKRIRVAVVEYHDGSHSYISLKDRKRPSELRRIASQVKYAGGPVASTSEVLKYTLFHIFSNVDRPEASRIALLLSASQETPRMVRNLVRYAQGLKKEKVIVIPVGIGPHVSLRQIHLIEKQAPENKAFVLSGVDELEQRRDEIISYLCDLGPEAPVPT
Procedure: Botrocetin induces the binding of the A1 domain of vWF to platelets, as well as the full length protein. It was determined by the inventors that 6-Histidine-tagged rabbit A1 domain vWF purified protein could be induced to bind to human lyophilized platelets with botrocetin. Rabbit A1 binding to platelets is measured with an anti-poly-His antibody followed by incubation with a phycoerythrin conjugated secondary antibody. The degree of binding can be quantified by flow cytometric analysis. The ability of aptamers to block the binding of rabbit A1 to human fixed platelets was correlated with decreased fluorescence signal.
The ability of aptamers of the invention to block rabbit vWF domain A1 binding to lyophilized platelets was also assessed by flow cytometric analysis. Titrations of aptamers (zero, 0.1 nM to 1000 nM) were preincubated briefly with 4 nM of rabbit A1 vWF in FACS buffer (PBS plus 0.5% bovine serum albumin) at room temperature in a volume of 50 uL. Another 50 uL containing 5 uL of lyophilized platelets plus 1 uL of 0.1 U/uL of botrocetin in FACS buffer was added to aptamer/vWF. This reaction was allowed to proceed for 15 minutes at 37 degrees C. after which 200 uL of FACS buffer was added. Platelets were collected by a 6 minute spin at 1470 RCF and the supernatant was discarded. The pellets were resuspended in 100 uL of FACS buffer containing a 1:200 dilution of anti-Penta-HIS-biotin conjugate antibody and were incubated at room temperature for 30 minutes. After the dilution with 200 uL of FACS buffer, the platelets were spun at 1470 RCF for 6 minutes, and the supernatant was discarded. The pellets were resuspended in a 1:100 solution of anti-IgG-PE antibody and were incubated in the dark for 30 minutes at room temperature. The entire 100 uL was diluted into 200 uL of FACS buffer and analyzed immediately by flow cytometric analysis in the FACSCAN. Contaminating debris was eliminated from the analysis by drawing a gate around the population of single and aggregated platelets and collecting data from 10000 events. Median fluorescent intensity (“MedFI”) readings (which are generally equivalent to the MFI readings, described in Example 3a above, for comparative purposes) were quantified for each sample analyzed by flow cytometry. Background MedFI was subtracted from all data points. Percent inhibition was reported by calculating the percent value of binding of […] to platelets in the presence of aptamer at a given concentration relative to binding in the absence of any aptamer (see FIG. 7). IC50 values were determined by fitting the percent inhibition of vWF binding to platelets as a function of aptamer concentration to the equation: % inhibition=% inhibitionmax/(1+IC50/aptamer conc.)

Substance | T½ Human plasma | % binding @ 100 nM vWF ([1]; Phase 4 and 5 modification) | Kd ([1]; Phase 4 and 5 modification) | IC90 [2] | T½ Rat plasma [3] | IC50 [4] | IC50 [5] | % binding @ 100 nM vWF ([1]; Phase 2 modification) | Kd ([1]; Phase 2 modification) | binding to human vWF ([1]; in words, dot blot)
mCmGmGmCdCmG-s-TmGdCdGdGTmGmCdCmUdCdCmGmUmCmAmCPEGmGmUdGdCdAmGmUmGmCmCmG-3T (CGGCCGTGCGGTGCCUCCGUCACGUGCAGUGCCGT; chemistry not fully specified) [ARC1533] | 93 h | 31.7% | 4 nM | – | – | – | – | – | – | –
mGmCmGmUdGdCdAmGmUmGmCmCmUmUmCmGmGmCdCmGTmGdCdGdGTmGmCdCmUdCdCmGmUmCmAmCmGmC-3T (GCGUGCAGUGCCUUCGGCCGTGCGGTGCCUCCGUCACGC; sugars from the 5' end mmmmdddmmmmmmmmmmmdmdmddddmmdmddmmmmmmm, [invdT] at 3' end, backbone and methylation of C not given here) [ARC1346] | – | – | – | > 1000 nM | 19 h | 50 nM | 180 nM | 51% | 11 nM | the most potent
